Data: patent publication US11696913B2, “Prolonged ectoparasite-controlling agent for animal” (MITSUI CHEMICALS AGRO, INC., priority 2017, dated 2023)

Assays:
[1] = test system: Rhipicephalus (Boophilus) microplus; assay: In vitro injection test with Rhipicephalus (Boophilus) microplus (BOOPMI Inj); settings: 168 h, laid fertile eggs after 7 days, read-out: acaricidal activity; for pest or weed control at 0.00016 mg: dose 0.16 μg/animal injected; for pest or weed control at 0.0008 mg: dose 0.8 μg/animal injected; for pest or weed control at 32 ng: dose 0.032 μg/animal injected
Method: In Vitro Injection Test with Rhipicephalus (Boophilus) Microplus (BOOPMI Inj)
To produce an appropriate mixture for injection, the test substance was dissolved and diluted in dimethyl sulphoxide to the desired concentration. 1 μl of the test mixture was injected into the abdomen of each of 5 engorged adult female cattle ticks (Rhipicephalus (Boophilus) microplus). The ticks were transferred into petri dishes and maintained in a climate-controlled room [28° C., 85% rel. hum.].
Acaricidal activity against cattle ticks was assessed after 7 days by assessment of laid fertile eggs. […] An acaricidal activity of 100% means that none of the ticks laid eggs or laid eggs were infertile; 0% means that the ticks laid eggs, and all the eggs were fertile.

[2] = test system: Ctenocephalides felis; assay: In vitro contact test with fleas; settings: read-out: insecticidal activity; for pest or weed control at 0.2 µg/cm2, 0.2 µg/cm2: dose 0.2 μg/cm^2, dead or moribund fleas after 48 h; for pest or weed control at 1 µg/cm2, 1 µg/cm2: dose 1 μg/cm^2, dead or moribund fleas after 48 h; for pest or weed control at 0.04 µg/cm2, 0.04 µg/cm2: dose 0.04 μg/cm^2, dead or moribund fleas after 48 h
Method: In Vitro Contact Tests with Fleas
In vitro contact tests with fleas were conducted with adult male and female cat fleas (Ctenocephalides felis).
(§1) To coat the test tubes, the test substance was dissolved and diluted in acetone p.a. to the desired concentration. The solution was then homogeneously applied to the inner wall and base of a glass tube by turning and rocking on an orbital shaker until complete evaporation of the solvent. For example, with a 900 ppm solution of test substance, an area-based dose of 5 μg/cm^2 was achieved.
Upon complete evaporation of the solvent, 5-10 adult cat fleas (Ctenocephalides felis) were added to each coated tube, which was then sealed with a perforated plastic lid and incubated in a horizontal position at room temperature and ambient humidity. After 48 h, insecticidal activity against fleas was determined. For this, fleas were collected to the base of the tube by knocking the tube, and the tube was allowed to stand upright. Fleas which remained motionless at the base or moved in an uncoordinated manner were considered dead or moribund, respectively.
A substance was judged to have good insecticidal activity against Ctenocephalides felis when at least 80% of the fleas were found dead or moribund at a dose of the substance of μg/cm^2. 100% insecticidal activity means that all the fleas were found dead or moribund. 0% insecticidal activity means that no fleas were found dead or moribund.

[3] = test system: Rhipicephalus sanguineus; assay: In vitro contact test with adult hard ticks (Rhipicephalus sanguineus); settings: read-out: acaricidal activity; for pest or weed control at 0.2 µg/cm2, 0.2 µg/cm2: dose 0.2 μg/cm^2, 48 h; for pest or weed control at 1 µg/cm2, 1 µg/cm2: dose 1 μg/cm^2, 48 h
Method: (§2) In Vitro Contact Tests with Adult Hard Ticks
(§3) In vitro contact tests with ticks were conducted with adult males and females of Rhipicephalus sanguineus, Ixodes ricinus, or Dermacentor variabilis, or nymphs of Amblyomma americanum.
as §1, with “For the coating of” for “To coat”, “vials,” for “tubes,”, “vial” for “tube”
(§4) After the solvent was completely evaporated, 5-10 adult ticks were put in each coated test vial, which was then sealed with a perforated plastic lid and incubated in a horizontal position in the dark at room temperature and ambient humidity (Rhipicephalus sanguineus) or in a climate-controlled cabinet (Ixodes ricinus, Dermacentor variabilis, Amblyomma americanum [21° C., 85% rel. hum.]). Acaricidal activity against the respective tick species was determined after 48 h. For this, ticks were collected to the base of the test vial by gentle knocking, and test vials were then incubated on a hotplate at 45-50° C. for no longer than 5 min. Ticks which remained motionless on the base of the test vial or moved uncoordinated without deliberately climbing up to avoid the heat were considered dead or moribund, respectively.
(§5) A substance was judged to have good acaricidal activity against the respective tick species when at least 80% of ticks were found dead or moribund at a dose of the substance of g/cm^2. An acaricidal activity of 100% means all ticks were dead or moribund. An acaricidal activity of 0% means none of the ticks was found dead or moribund.

[4] = test system: Ctenocephalides felis; assay: Ctenocephalides felis in-vitro feeding test with fleas (CTECFE oral); settings: 48 hours, read-out: insecticidal feeding activity; for pest or weed control at 0.8 ppm: dose 0.8 ppm in citrated cattle blood; for pest or weed control at 4 ppm: dose 4 ppm in citrated cattle blood; for pest or weed control at 0.16 ppm: dose 0.16 ppm in citrated cattle blood
Method: Ctenocephalides felis In-Vitro Feeding Test with Fleas (CTECFE Oral)
To prepare a test blood mixture for feeding fleas, the test substance was dissolved in dimethyl sulphoxide and diluted with citrated cattle blood to the desired concentration.
To assemble the test set-up, about 20 unfed adult male and female cat fleas
(Ctenocephalides felis) were placed in a chamber which was closed at the top and bottom with gauze. A metal cylinder was sealed at one end with parafilm membrane, placed with the sealed base onto the chamber, and filled with the test blood mixture, which could be imbibed by the fleas through the parafilm membrane. The assembled test set-up was maintained at about 37° C. After 48 hours, the insecticidal feeding activity against fleas was determined. 100% means that all of the fleas were killed; 0% means that none of the fleas was killed.

[5] = test system: Amblyomma americanum; assay: In vitro contact test with hard ticks (Amblyomma americanum nymphs); settings: read-out: acaricidal activity; for pest or weed control at 1 µg/cm2, 1 µg/cm2: dose 1 μg/cm^2, 48 h; for pest or weed control at 0.2 µg/cm2, 0.2 µg/cm2: dose 0.2 μg/cm^2, 48 h
Method: as §2, §3
as §1, with “For the coating of” for “To coat”, “vials,” for “tubes,”, “vial” for “tube”
as §4, §5

[6] = test system: Dermacentor variabilis; assay: In vitro contact test with adult hard ticks (Dermacentor variabilis); settings: read-out: acaricidal activity; for pest or weed control at 0.2 µg/cm2, 0.2 µg/cm2: dose 0.2 μg/cm^2, 48 h; for pest or weed control at 1 µg/cm2, 1 µg/cm2: dose 1 μg/cm^2, 48 h
Method: as §2, §3
as §1, with “For the coating of” for “To coat”, “vials,” for “tubes,”, “vial” for “tube”
as §4, §5

## N#Cc1ccc(C(=O)Nc2cccc(C(=O)Nc3c(I)cc(C(F)(C(F)(F)F)C(F)(F)F)cc3C(F)(F)F)c2)cc1 [Compound 19]
[1]
  pest or weed control at 0.00016 mg: 100%
  pest or weed control at 0.0008 mg: 100%
[2]
  pest or weed control at 0.2 µg/cm2, 0.2 µg/cm2: 95%
  pest or weed control at 1 µg/cm2, 1 µg/cm2: 95%
[3]
  pest or weed control at 0.2 µg/cm2, 0.2 µg/cm2: 90%
  pest or weed control at 1 µg/cm2, 1 µg/cm2: 90%
[4]
  pest or weed control at 0.8 ppm: 95%
  pest or weed control at 4 ppm: 95%
[5]
  pest or weed control at 1 µg/cm2, 1 µg/cm2: 90%

## CN(C(=O)c1ccc(F)nc1)c1cccc(C(=O)Nc2c(Br)cc(C(F)(C(F)(F)F)C(F)(F)F)cc2C(F)(F)F)c1F [Compound 21]
[6]
  pest or weed control at 0.2 µg/cm2, 0.2 µg/cm2: 90%
  pest or weed control at 1 µg/cm2, 1 µg/cm2: 90%
[1]
  pest or weed control at 32 ng: 100%
  pest or weed control at 0.00016 mg: 100%
  pest or weed control at 0.0008 mg: 100%
[2]
  pest or weed control at 0.04 µg/cm2, 0.04 µg/cm2: 95%
  pest or weed control at 0.2 µg/cm2, 0.2 µg/cm2: 95%
  pest or weed control at 1 µg/cm2, 1 µg/cm2: 95%
[3]; dose 0.04 μg/cm^2, 48 h
  pest or weed control at 0.04 µg/cm2, 0.04 µg/cm2: 90%
[3]
  pest or weed control at 0.2 µg/cm2, 0.2 µg/cm2: 90%
  pest or weed control at 1 µg/cm2, 1 µg/cm2: 90%
[4]
  pest or weed control at 0.8 ppm: 95%
  pest or weed control at 4 ppm: 95%
[5]
  pest or weed control at 0.2 µg/cm2, 0.2 µg/cm2: 90%
  pest or weed control at 1 µg/cm2, 1 µg/cm2: 90%

## CN(C(=O)c1ccc(C#N)cc1)c1cccc(C(=O)Nc2c(I)cc(C(F)(C(F)(F)F)C(F)(F)C(F)(F)F)cc2C(F)(F)F)c1F (stereo not shown) [Compound 23]
[6]; dose 0.04 μg/cm^2, 48 h
  pest or weed control at 0.04 µg/cm2, 0.04 µg/cm2: 90%
[6]
  pest or weed control at 0.2 µg/cm2, 0.2 µg/cm2: 90%
  pest or weed control at 1 µg/cm2, 1 µg/cm2: 90%
[1]; dose 0.0064 μg/animal injected
  pest or weed control at 6.4 ng: 100%
[1]
  pest or weed control at 32 ng: 100%
  pest or weed control at 0.00016 mg: 100%
  pest or weed control at 0.0008 mg: 100%
[2]
  pest or weed control at 0.04 µg/cm2, 0.04 µg/cm2: 95%
  pest or weed control at 0.2 µg/cm2, 0.2 µg/cm2: 95%
  pest or weed control at 1 µg/cm2, 1 µg/cm2: 95%
[3]
  pest or weed control at 1 µg/cm2, 1 µg/cm2: 90%
[4]; dose 0.0064 ppm in citrated cattle blood
  pest or weed control at 0.0064 ppm: 95%
[4]; dose 0.032 ppm in citrated cattle blood
  pest or weed control at 0.032 ppm: 95%
[4]
  pest or weed control at 0.16 ppm: 95%
  pest or weed control at 0.8 ppm: 95%
  pest or weed control at 4 ppm: 95%
[5]
  pest or weed control at 1 µg/cm2, 1 µg/cm2: 90%

## O=C(Nc1cccc(C(=O)Nc2c(I)cc(C(F)(C(F)(F)F)C(F)(F)F)cc2C(F)(F)F)c1F)c1ccc(Cl)cc1Cl [Compound 33]
[6]
  pest or weed control at 0.2 µg/cm2, 0.2 µg/cm2: 90%
  pest or weed control at 1 µg/cm2, 1 µg/cm2: 90%
[1]
  pest or weed control at 0.00016 mg: 100%
  pest or weed control at 0.0008 mg: 100%
[2]
  pest or weed control at 0.2 µg/cm2, 0.2 µg/cm2: 95%
  pest or weed control at 1 µg/cm2, 1 µg/cm2: 95%
[4]
  pest or weed control at 0.16 ppm: 95%
  pest or weed control at 0.8 ppm: 95%
  pest or weed control at 4 ppm: 95%
[5]
  pest or weed control at 0.2 µg/cm2, 0.2 µg/cm2: 90%
  pest or weed control at 1 µg/cm2, 1 µg/cm2: 90%

## O=C(Nc1c(I)cc(C(F)(C(F)(F)F)C(F)(F)F)cc1C(F)(F)F)c1cccc(NC(=O)c2cc(F)c(F)cc2Cl)c1 [Compound 38]
[6]
  pest or weed control at 1 µg/cm2, 1 µg/cm2: 90%
[1]
  pest or weed control at 0.00016 mg: 100%
  pest or weed control at 0.0008 mg: 100%
[2]
  pest or weed control at 0.2 µg/cm2, 0.2 µg/cm2: 95%
  pest or weed control at 1 µg/cm2, 1 µg/cm2: 95%
[4]
  pest or weed control at 0.16 ppm: 95%
  pest or weed control at 0.8 ppm: 95%
  pest or weed control at 4 ppm: 95%
[5]
  pest or weed control at 0.2 µg/cm2, 0.2 µg/cm2: 90%
  pest or weed control at 1 µg/cm2, 1 µg/cm2: 90%

## O=C(Nc1c(I)cc(C(F)(C(F)(F)F)C(F)(F)F)cc1C(F)(F)F)c1cccc(NC(=O)c2ccc([N+](=O)[O-])cc2Cl)c1 [Compound 39]
[1]
  pest or weed control at 0.00016 mg: 100%
  pest or weed control at 0.0008 mg: 100%
[2]
  pest or weed control at 1 µg/cm2, 1 µg/cm2: 95%
[3]
  pest or weed control at 1 µg/cm2, 1 µg/cm2: 90%
[4]
  pest or weed control at 0.8 ppm: 95%
  pest or weed control at 4 ppm: 95%
[5]
  pest or weed control at 0.2 µg/cm2, 0.2 µg/cm2: 90%
  pest or weed control at 1 µg/cm2, 1 µg/cm2: 90%
